Here are results for 21 compounds from patent US20250122218A1, “MODULATORS OF CYSTIC FIBROSIS TRANSMEMBRANE CONDUCTANCE REGULATOR” (Vertex Pharmaceuticals Incorporated, priority 2022, published 2025).

The assay concerns the target T1, CFTR in F508del/MF-HBE cells (Homo sapiens, UniProt P13569, DEL508-508).
T1 construct: human bronchial epithelial (HBE) cells derived from CF subjects heterozygous for F508del and a minimal function CFTR mutation; endogenous in cells; host or cells: primary human bronchial epithelial cells from CF subjects (F508del/MF-HBE)
Kind of assay: Ussing chamber assay of CFTR-mediated short-circuit currents (identification of potentiator compounds). Type of assay: cell-based. The conditions noted are these: potentiator incubated 18-24 hours at 37° C. in combination with 10 μM corrector, in the presence of 20% human serum, CFTR-mediated ISC. On the procedure: Ussing chamber experiments were performed using human bronchial epithelial (HBE) cells derived from CF subjects heterozygous for F508del and a minimal function CFTR mutation (F508del/MF-HBE) and cultured as previously described (Neuberger T, Burton B, Clark H, Van Goor F; Methods Mol. Biol. 2011:741:39-54). After four days the apical media was removed, and the cells were grown at an air liquid interface for >14 days prior to use.
To isolate the CFTR-mediated short-circuit (ISC) current, F508del/MF-HBE grown on Costar® Snapwell™ cell culture inserts were mounted in an Ussing chamber and the transepithelial ISC was measured under voltage-clamp recording conditions (Vhold=0 mV) at 37° C. The basolateral solution contained (in mM) 145 NaCl, 0.83 K2HPO4, 3.3 KH2PO4, 1.2 MgCl2, 1.2 CaCl2), 10 Glucose, 10 HEPES (pH adjusted to 7.4 with NaOH) and the apical solution contained (in mM) 145 NaGluconate, 1.2 MgCl2, 1.2 CaCl2), 10 glucose, 10 HEPES (pH adjusted to 7.4 with NaOH) and 30 μM amiloride to block the epithelial sodium channel. Forskolin (20 μM) was added to the apical surface to activate CFTR, followed by apical addition of a CFTR inhibitor cocktail consisting of BPO, GlyH-101 and CFTR inhibitor 172 (each at 20 μM final assay concentration) to specifically isolate CFTR currents. The CFTR-mediated ISC (μA/cm^2) for each condition was determined from the peak forskolin response to the steady-state current following inhibition.
The activity of the CFTR potentiator compounds on the CFTR-mediated ISC was determined in Ussing chamber studies as described above. The F508del/MF-HBE cell cultures were incubated with the potentiator compounds at a range of concentrations in combination with 10 μM (14S)-8-[3-(2-{dispiro[2.0.2.1]heptan-7-yl}ethoxy)-1H-pyrazol-1-yl]-12,12-dimethyl-2λ^6-thia-3,9,11,18,23-pentaazatetracyclo[17.3.1.111,14.05,10]tetracosa-1(22),5,7,9,19(23),20-hexaene-2,2,4-trione for 18-24 hours at 37° C. and in the presence of 20% human serum. The concentration of potentiator compounds and (14S)-8-[3-(2-{dispiro[2.0.2.1]heptan-7-yl}ethoxy)-1H-pyrazol-1-yl]-12,12-dimethyl-2λ^6-thia-3,9,11,18,23-pentaazatetracyclo[17.3.1.111,14.05,10]tetracosa-1(22),5,7,9,19(23),20-hexaene-2,2,4-trione used during the 18-24 hours incubations was kept constant throughout the Ussing chamber measurement of the CFTR-mediated ISC to ensure compounds were present throughout the entire experiment. The efficacy and potency of the putative F508del potentiators was compared to that of the known potentiator, ivacaftor (N-[2,4-bis(1,1-dimethylethyl)-5-hydroxyphenyl]-1,4-dihydro-4-oxoquinoline-3-carboxamide).

T1 sequence (P13569 with tags, fused parts or gaps DEL508-508): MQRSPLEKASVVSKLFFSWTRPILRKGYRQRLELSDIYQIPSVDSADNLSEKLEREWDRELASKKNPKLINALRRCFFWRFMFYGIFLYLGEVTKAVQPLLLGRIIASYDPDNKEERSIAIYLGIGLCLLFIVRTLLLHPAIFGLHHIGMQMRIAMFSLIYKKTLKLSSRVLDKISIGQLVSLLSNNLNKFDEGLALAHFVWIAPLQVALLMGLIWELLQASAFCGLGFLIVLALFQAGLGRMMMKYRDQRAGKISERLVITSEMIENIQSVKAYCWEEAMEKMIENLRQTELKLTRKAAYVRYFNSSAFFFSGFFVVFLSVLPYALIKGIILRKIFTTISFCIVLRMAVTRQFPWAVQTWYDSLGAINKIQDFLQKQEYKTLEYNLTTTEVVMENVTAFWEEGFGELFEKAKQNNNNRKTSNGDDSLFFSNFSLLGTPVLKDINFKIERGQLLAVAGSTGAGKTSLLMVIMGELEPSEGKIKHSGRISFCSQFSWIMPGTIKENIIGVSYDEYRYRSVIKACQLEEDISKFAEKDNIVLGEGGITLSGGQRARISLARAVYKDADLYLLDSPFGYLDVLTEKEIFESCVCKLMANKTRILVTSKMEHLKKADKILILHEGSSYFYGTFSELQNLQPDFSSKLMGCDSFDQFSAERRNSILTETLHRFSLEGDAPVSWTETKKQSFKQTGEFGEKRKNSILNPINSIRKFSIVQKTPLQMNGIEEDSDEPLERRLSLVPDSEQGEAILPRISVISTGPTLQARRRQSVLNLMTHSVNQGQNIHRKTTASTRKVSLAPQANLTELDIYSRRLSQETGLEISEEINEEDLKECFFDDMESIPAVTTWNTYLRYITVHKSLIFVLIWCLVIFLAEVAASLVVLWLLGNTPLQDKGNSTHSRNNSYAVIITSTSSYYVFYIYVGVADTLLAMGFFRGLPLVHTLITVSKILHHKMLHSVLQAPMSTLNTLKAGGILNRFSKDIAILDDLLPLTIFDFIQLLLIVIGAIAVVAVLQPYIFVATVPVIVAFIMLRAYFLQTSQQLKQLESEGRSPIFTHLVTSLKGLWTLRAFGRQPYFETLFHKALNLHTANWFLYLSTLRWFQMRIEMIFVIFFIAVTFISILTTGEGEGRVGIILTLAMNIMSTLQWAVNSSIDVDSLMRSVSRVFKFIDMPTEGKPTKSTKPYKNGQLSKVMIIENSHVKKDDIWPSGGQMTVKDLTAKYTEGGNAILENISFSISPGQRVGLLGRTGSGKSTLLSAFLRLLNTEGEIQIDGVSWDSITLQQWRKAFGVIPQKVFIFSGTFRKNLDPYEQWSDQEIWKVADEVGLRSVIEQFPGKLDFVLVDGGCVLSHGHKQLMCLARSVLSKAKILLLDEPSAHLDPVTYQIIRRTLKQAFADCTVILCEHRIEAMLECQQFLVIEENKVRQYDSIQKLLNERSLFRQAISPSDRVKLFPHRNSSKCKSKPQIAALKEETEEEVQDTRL

Consider “17-amino-12-[(3- cyclobutyl-5-fluoro- phenyl)methyl]-6- hydroxy-6,15- bis(trifluoromethyl)- 8,19-dioxa-3,4,12,18- tetrazatricyclo [12.3.1.12,5] nonadeca- 1(18),2,4,14,16- pentaen-13-one [Compound 263]”, for which the EC50 (usually the concentration giving half of the maximal effect) was < 500 nM. For the compound “17-amino-12-[(3-tert- butylphenyl)methyl]- 6-hydroxy-6,15- bis(trifluoromethyl)- 8,19-dioxa-3,4,12,18- tetrazatricyclo [12.3.1.12,5] nonadeca- 1(18),2,4,14,16- pentaen-13-one [Compound 261]”, the EC50 was < 500 nM. Regarding `Nc1cc(C(F)(F)F)c2nc1-c1nnc(o1)[C@@](O)(C(F)(F)F)CCCCCN(CC1CCCCO1)C2=O` (mixture of isomers) [Compound 130, (6R)-17-amino-6-hydroxy-12-(tetrahydropyran-2-ylmethyl)-6,15-bis (trifluoromethyl)-19-oxa-3,4,12,18-tetrazatricyclo [12.3.1.12,5] nonadeca-1(18),2,4,14,1 6-pentaen-13-one], the EC50 is < 500 nM. For the compound `Nc1cc(C(F)(F)F)c2nc1-c1nnc(o1)[C@@](O)(C(F)(F)F)CCCCCN(CC1CCCOC1)C2=O` (mixture of isomers) [Compound 131, (6R)-17-Amino-6-hydroxy-12-(tetrahydropyran-3-ylmethyl)-6,15-bis (trifluoromethyl)-19-oxa-3,4,12,18-tetrazatricyclo [12.3.1.12,5] nonadeca-1(18),2,4,14,1 6-pentaen-13-one], the 50% effective concentration (EC50) is < 500 nM.

Turning to `Nc1cc(C(F)(F)F)c2nc1-c1nnc(o1)[C@@](O)(C(F)(F)F)CCCCCN(C1CCCOC1)C2=O` (mixture of isomers) [Compound 133, (6R)-17-Amino-6-hydroxy-12-tetrahydropyran-3-yl-6,15-bis (trifluoromethyl)-19-oxa-3,4,12,18-tetrazatricyclo [12.3.1.12,5] nonadeca-1(18),2,4,14,1 6-pentaen-13-one], the EC50 was < 500 nM. `Nc1cc(C(F)(F)F)c2nc1-c1nnc(o1)C(O)(C(F)(F)F)c1cc(ccc1F)CCCN(C1CC(F)(F)C1)C2=O` (racemic) [Compound 201, 20-amino-15-(3,3-difluorocyclobutyl)-8-fluoro-6-hydroxy-6,18-bis(trifluoromethyl)-23-oxa-3,4,15,21-tetraazatetracyclo [15.3.1.12,5.17,11] tricosa 1(21),2,4,7(22),8,10, 17,19-octaen-16-one]: the EC50 was < 500 nM. As to `Nc1cc(C(F)(F)F)c2nc1-c1nnc(o1)C(O)(C(F)(F)F)CCCCCCC2` (single isomer, unassigned) [Compound 2, 17-amino-6,15-bis(trifluoromethyl)-19-oxa-3,4,18-triazatricyclo[12.3.1.12,5]nonadeca-1(18),2,4,14,16-pentaen-6-ol], the EC50 was < 500 nM. As for `Nc1cc(C(F)(F)F)c2nc1-c1nnc(o1)C(O)(C(F)(F)F)CCCCCc1ccccc1-2` (single isomer, unassigned) [Compound 4, 21-amino-6,19-bis(trifluoromethyl)-23-oxa-3,4,22-triazatetracyclo[16.3.1.12,5.012,17]tricosa-1(22),2,4,12,14,16,18,20-octaen-6-ol], the EC50 was < 500 nM. For `Nc1cc(C(F)(F)F)c2nc1-c1nnc(o1)C(O)(C(F)(F)F)CCCCCc1ccccc1-2` (single isomer, unassigned) [Compound 5, 21-amino-6,19-bis(trifluoromethyl)-23-oxa-3,4,22-triazatetracyclo[16.3.1.12,5.012,17]tricosa-1(22),2,4,12,14,16,18,20-octaen-6-ol], the EC50 is > 1000 nM.

For `Nc1cc(C(F)(F)F)c2nc1-c1nnc(o1)[C@](O)(C(F)(F)F)CCCCCCC2=O` (single isomer, unassigned) [Compound 7], the EC50 is > 1000 nM.

As for `Nc1cc(C(F)(F)F)c2nc1-c1nnc(o1)C(O)(C(F)(F)F)CCCCCCC2O` (single isomer, unassigned) [Compound 8, 17-amino-6,15-bis(trifluoromethyl)-19-oxa-3,4,18-triazatricyclo[12.3.1.12,5]nonadeca-1(18),2,4,14,16-pentaene-6,13-diol], the EC50 was < 500 nM. For `Nc1cc(C(F)(F)F)c2nc1-c1nnc(o1)C(O)(C(F)(F)F)CCCCCCC2O` (single isomer, unassigned) [Compound 9, 17-amino-6,15-bis(trifluoromethyl)-19-oxa-3,4,18-triazatricyclo[12.3.1.12,5]nonadeca-1(18),2,4,14,16-pentaene-6,13-diol] the value was > 1000 nM; for `Nc1cc(C(F)(F)F)c2nc1-c1nnc(o1)C(O)(C(F)(F)F)CCCCCCC2O` (single isomer, unassigned) [Compound 10, 17-amino-6,15-bis(trifluoromethyl)-19-oxa-3,4,18-triazatricyclo[12.3.1.12,5]nonadeca-1(18),2,4,14,16-pentaene-6,13-diol], < 500 nM; for `Nc1cc(C(F)(F)F)c2nc1-c1nnc(o1)C(O)(C(F)(F)F)CCCCCCC2O` (single isomer, unassigned) [Compound 11, 17-amino-6,15-bis(trifluoromethyl)-19-oxa-3,4,18-triazatricyclo[12.3.1.12,5]nonadeca-1(18),2,4,14,16-pentaene-6,13-diol], > 1000 nM. As for `COC1CCCCCCC(O)(C(F)(F)F)C2=NN=C(O2)c2nc1c(C(F)(F)F)cc2N` (single isomer, unassigned) [Compound 12, 17-Amino-13-methoxy-6,15-bis(trifluoromethyl)-19-oxa-3,4,18-triazatricyclo[12.3.1.12,5]nonadeca-1(18),2,4,14,16-pentaen-6-ol], the EC50 was < 500 nM. `COC1CCCCCCC(O)(C(F)(F)F)C2=NN=C(O2)c2nc1c(C(F)(F)F)cc2N` (single isomer, unassigned) [Compound 13, 17-amino-13-methoxy-6,15-bis(trifluoromethyl)-19-oxa-3,4,18-triazatricyclo[12.3.1.12,5]nonadeca-1(18),2,4,14,16-pentaen-6-ol]: the EC50 was < 500 nM. On to `COC1CCCCCCC(O)(C(F)(F)F)C2=NN=C(O2)c2nc1c(C(F)(F)F)cc2N` (single isomer, unassigned) [Compound 14, 17-Amino-13-methoxy-6,15-bis(trifluoromethyl)-19-oxa-3,4,18-triazatricyclo[12.3.1.12,5]nonadeca-1(18),2,4,14,16-pentaen-6-ol], for which the EC50 was < 500 nM. As to `COC1CCCCCCC(O)(C(F)(F)F)C2=NN=C(O2)c2nc1c(C(F)(F)F)cc2N` (single isomer, unassigned) [Compound 15, 17-amino-13-methoxy-6,15-bis(trifluoromethyl)-19-oxa-3,4,18-triazatricyclo[12.3.1.12,5]nonadeca-1(18),2,4,14,16-pentaen-6-ol], the concentration giving a half-maximal response (EC50) lay within 500 to 1000 nM.

Turning to `CC1CCCCCCC(O)(C(F)(F)F)C2=NN=C(O2)c2nc1c(C(F)(F)F)cc2N` (single isomer, unassigned) [Compound 16, 17-Amino-13-methyl-6,15-bis(trifluoromethyl)-19-oxa-3,4,18-triazatricyclo[12.3.1.12,5]nonadeca-1(18),2,4,14,16-pentaen-6-ol], the EC50 was < 500 nM. In the case of `CC1CCCCCCC(O)(C(F)(F)F)C2=NN=C(O2)c2nc1c(C(F)(F)F)cc2N` (single isomer, unassigned) [Compound 17, 17-amino-13-methyl-6,15-bis(trifluoromethyl)-19-oxa-3,4,18-triazatricyclo[12.3.1.12,5]nonadeca-1(18),2,4,14,16-pentaen-6-ol], the concentration giving a half-maximal response (EC50) is < 500 nM. For the compound `CC1CCCCCCC(O)(C(F)(F)F)C2=NN=C(O2)c2nc1c(C(F)(F)F)cc2N` (single isomer, unassigned) [Compound 18, 17-amino-13-methyl-6,15-bis(trifluoromethyl)-19-oxa-3,4,18-triazatricyclo[12.3.1.12,5]nonadeca-1(18),2,4,14,16-pentaen-6-ol], the EC50 is < 500 nM.
